From PubChem BioAssay AID517 (Columbia University Molecular Screening Center, 2006)
Active and inactive are the calls of the source.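 Rule for the calls: active = activity score of 15 or more, from fitted potency or summed per-dose inhibition z-scores, roughly IC50 of 5 µM; inactive = the rest.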

These compounds were tested on HUVEC TNFalpha-induced E-selectin immunofluorescence imaging (assay: E-selectin expression inhibitors, dose response, confirmation, imaging, HUVEC, immunofluorescence, TNFalpha stimulation (AID 517)).

Q: `O=C(c1ccc2c3c(cccc13)C(=O)N(O)C2=O)N1CCCCC1` was tested. Which IC50 did it give?
A: > 8 µM (inactive)

Q: How did the IC50 turn out when `COc1ccc(Cc2nc3ccc(S(N)(=O)=O)cc3[nH]2)cc1OC` was run?
A: > 8 µM (inactive)

Q: `Cc1c(O)c(CN2CCCC2)cc2c1oc(=O)c1ccccc12` was tested. Which IC50 did it give?
A: > 8 µM (inactive)

Q: With `O=C(O)CC1CCCC(c2ccccc2)C1=O` (stereo unspecified) as the compound, how does the IC50 read?
A: > 8 µM (inactive)

Q: With `CC1(C)CC(=O)C(C=NC(CCC(N)=O)C(=O)O)=C(O)C1` (stereo unspecified) as the compound, how does the IC50 read?
A: > 8 µM (inactive)

Q: How did the IC50 turn out when `COc1ccc(CCN2C(=O)CC(N3CCN(S(=O)(=O)c4ccccc4)CC3)C2=O)cc1` (stereo unspecified) was run?
A: > 8 µM (inactive)

Q: `COc1ccc(OC)c2[nH]c(=O)c(CCNC(=O)CC(C)C)cc12` was tested. Which IC50 did it give?
A: > 8 µM (inactive)

Q: `O=C1CC(c2ccc(S(=O)(=O)N3CCN(c4ccccc4)CC3)cc2)CN1` (stereo unspecified) was tested. Which IC50 did it give?
A: > 8 µM (inactive)

Q: How did the IC50 turn out when `C=CCOC(=O)COc1cc(C)cc2oc(=O)c3c(c12)CCC3` was run?
A: > 8 µM (inactive)

Q: `CC1CCN(C(=O)CSc2nc3ccccc3[nH]2)CC1` was tested. Which IC50 did it give?
A: > 8 µM (inactive)

Q: How did the IC50 turn out when `O=C(NCCCN1CCCC1=O)c1cncc(Br)c1` was run?
A: > 8 µM (inactive)

Q: `CN(C(=O)c1ccc2c(=O)n3c(nc2c1)CCCCC3)c1ccccc1` was tested. Which IC50 did it give?
A: > 8 µM (inactive)

Q: How did the IC50 turn out when `O=C(CSc1ccc(-c2ccccc2)nn1)N1CCOCC1` was run?
A: > 8 µM (inactive)

Q: Which IC50 does the source give for `CN(Cc1ccccc1)Cc1nc2c([nH]1)c(=O)[nH]c(=O)n2C` here?
A: > 8 µM (inactive)

Q: How did the IC50 turn out when `N#CCCn1cnc2ccccc21` was run?
A: > 8 µM (inactive)

Q: Which IC50 does the source give for `CC(C)Cn1c(=O)c(C(=O)Nc2ccccc2S(N)(=O)=O)c(O)c2ccccc21` here?
A: > 8 µM (inactive)

Q: Which IC50 does the source give for `COC(=O)CCC(=O)Nc1cccc(Br)c1` here?
A: > 8 µM (inactive)

Q: Which IC50 does the source give for `Cc1cnc(NC(=O)CSc2nc3ccccc3c(=O)[nH]2)s1` here?
A: > 8 µM (inactive)

Q: How did the IC50 turn out when `C[C@H]1CCC/C=C/C2C[C@H](O)CC2[C@H](O)/C=C/C(=O)O1` (stereo partly specified) was run?
A: < 0.01 µM

Q: `CCN(CC(=O)NC(=O)NCc1ccco1)Cc1nc2ccccc2c(=O)[nH]1` was tested. Which IC50 did it give?
A: > 8 µM (inactive)

Q: Which IC50 does the source give for `COCCn1c(=O)[nH]c2cc(C(=O)NCc3cccnc3)ccc2c1=O` here?
A: > 8 µM (inactive)

Q: How did the IC50 turn out when `FC(F)Oc1cccc2cccnc12` was run?
A: > 8 µM (inactive)

Q: How did the IC50 turn out when `O=c1c2ccccc2nc(SCc2cn3ccsc3n2)n1-c1ccc(F)cc1` was run?
A: > 8 µM (inactive)

Q: `Cc1cc2c(cc1C)-c1nnnn1C(C)(C)C2` was tested. Which IC50 did it give?
A: > 8 µM (inactive)

Q: Which IC50 does the source give for `O=S1(=O)C=C(Sc2nc3ccccc3s2)c2ccccc21` here?
A: 1.85 µM

Q: With `Cc1ccc2[nH]c(=O)c(CN(CCc3ccccc3)Cc3nnnn3CC3CCCO3)cc2c1` (stereo unspecified) as the compound, how does the IC50 read?
A: > 8 µM (inactive)

Q: How did the IC50 turn out when `Cc1oc(-c2ccccc2Cl)nc1CSCC(=O)N1CCCC1` was run?
A: > 8 µM (inactive)

Q: With `Cc1ccc(O)c(C(=O)c2cc(C#N)c(=O)n(CC3CCCO3)c2)c1` (stereo unspecified) as the compound, how does the IC50 read?
A: > 8 µM (inactive)

Q: With `COc1ccc(NC(=O)CSc2nnc(-c3ccccc3C)n2C)cc1` as the compound, how does the IC50 read?
A: > 8 µM (inactive)

Q: With `COc1ccc(-c2nnc(-c3cccs3)o2)cc1OC` as the compound, how does the IC50 read?
A: > 8 µM (inactive)

Q: How did the IC50 turn out when `CCn1c(=N)n(CC(=O)c2ccco2)c2ccccc21` was run?
A: > 8 µM (inactive)

Q: With `FC(F)Oc1ccc(-c2csc(Cc3nnc4n3CCCCC4)n2)cc1` as the compound, how does the IC50 read?
A: > 8 µM (inactive)

Q: Which IC50 does the source give for `O=C(Nc1ccc(SC(F)F)cc1)c1ccc2nccnc2c1` here?
A: > 8 µM (inactive)

Q: `CC(C)C(C(=O)Nc1ccc2c(c1)OCO2)N1C(=O)c2ccccc2C1=O` (stereo unspecified) was tested. Which IC50 did it give?
A: > 8 µM (inactive)

Q: How did the IC50 turn out when `O=C(COn1nnc2ccc(C(F)(F)F)cc21)Nc1nnc(-c2ccccc2)o1` was run?
A: > 8 µM (inactive)

Q: `COc1ccccc1OCC(O)COC(N)=O` (stereo unspecified) was tested. Which IC50 did it give?
A: > 8 µM (inactive)

Q: With `CN(CCc1ccccn1)c1ncnc2[nH]ncc12` as the compound, how does the IC50 read?
A: > 8 µM (inactive)

Q: Which IC50 does the source give for `COC(=O)C1=C(C)NC(C)=C(C(=O)OC)C1C(=O)OC1CCCCC1=O` (stereo unspecified) here?
A: > 8 µM (inactive)

Q: `CCN(CC)CCCNC(=O)c1cn(C)c2ccc(S(=O)(=O)N(C)C)cc2c1=O` was tested. Which IC50 did it give?
A: > 8 µM (inactive)

Q: For `Cc1cc(C)n(C2=NS(=O)(=O)c3ccccc32)n1`, which IC50 is on record?
A: > 8 µM (inactive)

Q: How did the IC50 turn out when `COc1cccc2c1C(=O)c1c(O)c3c(c(O)c1C2=O)C[C@@](O)(C(=O)CO)C[C@@H]3O[C@H]1C[C@H](N)[C@H](O)[C@H](C)O1` was run?
A: 3.2 µM

Q: How did the IC50 turn out when `CC(=O)Nc1sc2c(c1CN1CCN(c3ccccn3)CC1)CCCC2` was run?
A: > 8 µM (inactive)

Q: With `CC1=CC=CC2=NC(=O)CC(C)(C(=O)N(CC(=O)NC(C)C)C3CCCC3)N12` (stereo unspecified) as the compound, how does the IC50 read?
A: > 8 µM (inactive)

Q: `Cc1cc(N2C(=O)C3C4C=CC(C4)C3C2=O)ccc1Br` (stereo unspecified) was tested. Which IC50 did it give?
A: > 8 µM (inactive)

Q: Which IC50 does the source give for `CC1CN(C(=O)CSc2nnc(-c3ccncc3)n2-c2ccccc2)CC(C)O1` (stereo unspecified) here?
A: > 8 µM (inactive)

Q: For `C=CCNc1nc(C)nc(OC)n1`, which IC50 is on record?
A: > 8 µM (inactive)

Q: How did the IC50 turn out when `Cc1ccc(SC(C)c2nc(-c3ccccc3)no2)cc1` (stereo unspecified) was run?
A: > 8 µM (inactive)

Q: For `COc1ccc(CCNC(=O)C2=COCCO2)cc1`, which IC50 is on record?
A: > 8 µM (inactive)

Q: Which IC50 does the source give for `Cc1nc2ccccc2nc1OCC(=O)Nc1cc(C(F)(F)F)ccc1N1CCOCC1` here?
A: > 8 µM (inactive)

Q: With `O=C1c2ccccc2S(=O)(=O)N1Cc1nnc(-c2ccccc2Br)o1` as the compound, how does the IC50 read?
A: > 8 µM (inactive)

Q: How did the IC50 turn out when `CCN(CC)S(=O)(=O)c1ccc2[nH]cc(C(=O)NCCC3=CCCCC3)c(=O)c2c1` was run?
A: > 8 µM (inactive)

Q: With `O=C1CC(N2CCN(c3cccc(C(F)(F)F)c3)CC2)C(=O)N1c1ccccc1` (stereo unspecified) as the compound, how does the IC50 read?
A: > 8 µM (inactive)

Q: For `CCOC(=O)C1CCCN(C(=O)c2cc3c(=O)n4cccc(C)c4nc3n2C)C1` (stereo unspecified), which IC50 is on record?
A: > 8 µM (inactive)

Q: Which IC50 does the source give for `COc1ccc(Cl)cc1NC(=O)CSc1nncn1-c1cccnc1` here?
A: > 8 µM (inactive)

Q: With `OC1C[N+]2(CCCCC2)C1` as the compound, how does the IC50 read?
A: > 8 µM (inactive)

Q: How did the IC50 turn out when `Cc1ccc(C)c(-n2c(Cc3cc(=O)[nH]c(=O)[nH]3)nnc2SCC(=O)NCc2ccco2)c1` was run?
A: > 8 µM (inactive)

Q: Which IC50 does the source give for `O=C(Nc1cccc(F)c1)c1ccc2c(c1)OCO2` here?
A: > 8 µM (inactive)

Q: Which IC50 does the source give for `CCCCSc1nc(O)c(C2OC(=O)c3c2ccc(OC)c3OC)c(=O)n1C` (stereo unspecified) here?
A: > 8 µM (inactive)

Q: With `Cc1ccc(N=C2NC(=O)CS2)c(C)c1` as the compound, how does the IC50 read?
A: > 8 µM (inactive)

Q: How did the IC50 turn out when `N#Cc1c(NCc2ccccc2)ccnc1NCc1cccnc1` was run?
A: > 8 µM (inactive)

Q: With `Cc1c(NC2=NC3(CCCCC3)Cc3ccccc32)c(=O)n(-c2ccccc2)n1C` as the compound, how does the IC50 read?
A: > 8 µM (inactive)

Q: Which IC50 does the source give for `C=CCn1c(-c2ccccc2)n[nH]c1=S` here?
A: > 8 µM (inactive)

Q: For `Nc1c2c(nc3ccccc13)N(c1ccccc1)CC2`, which IC50 is on record?
A: > 8 µM (inactive)

Q: `COc1ccc2c(C)nc(Nc3nc(C)cc(C)n3)nc2c1` was tested. Which IC50 did it give?
A: > 8 µM (inactive)

Q: With `Cc1ccc(Nc2nc(N)nc(CN3CCCCCC3)n2)cc1` as the compound, how does the IC50 read?
A: > 8 µM (inactive)

Q: Which IC50 does the source give for `O=C(NCCN1CCOCC1)c1ccc(=O)oc1` here?
A: > 8 µM (inactive)

Q: With `O=c1cc(NCc2ccccc2)nc2n1CCCS2` as the compound, how does the IC50 read?
A: > 8 µM (inactive)

Q: `O=C(Nc1ccc2[nH]c3c(c2c1)CCCC3)c1ccco1` was tested. Which IC50 did it give?
A: > 8 µM (inactive)

Q: With `CC[C@H]1CN2CCc3cc(OC)c(OC)cc3[C@@H]2C[C@@H]1C[C@H]1NCCc2cc(OC)c(OC)cc21` as the compound, how does the IC50 read?
A: 0.08 µM

Q: Which IC50 does the source give for `Fc1cc(F)c(F)c(SCCc2ccncc2)c1F` here?
A: > 8 µM (inactive)

Q: `Cc1cc(NC(=O)CS(=O)(=O)c2cn(Cc3ccccc3Cl)c3ccccc23)no1` was tested. Which IC50 did it give?
A: > 8 µM (inactive)

Q: Which IC50 does the source give for `CCOC(=O)c1sc(NC(=O)CSc2n[nH]c(-c3ccccc3)n2)c(C#N)c1C` here?
A: > 8 µM (inactive)

Q: How did the IC50 turn out when `COc1cccc2c1C(=O)c1c(O)c3c(c(O)c1C2=O)C[C@@](O)(C(C)=O)C[C@@H]3O[C@H]1C[C@H](N)[C@H](O)[C@H](C)O1` was run?
A: 0.63 µM

Q: How did the IC50 turn out when `COc1ccccc1-c1c(C)nn2c(C)c(C(C)=O)cnc12` was run?
A: > 8 µM (inactive)

Q: `CC1CCN(CCC(=O)Nc2ccc(Br)cc2)CC1` was tested. Which IC50 did it give?
A: > 8 µM (inactive)

Q: With `CCn1c(=O)n(CC(=O)N(C)Cc2ccccc2)c(=O)c2ccccc21` as the compound, how does the IC50 read?
A: > 8 µM (inactive)

Q: For `COCCNC(=O)C1CCCN(c2ncccn2)C1` (stereo unspecified), which IC50 is on record?
A: > 8 µM (inactive)

Q: How did the IC50 turn out when `COc1ccc(OC(=O)c2cc3ccccc3o2)cc1` was run?
A: > 8 µM (inactive)

Q: Which IC50 does the source give for `O=C1COc2ccc(C(=O)NCc3ccco3)cc2N1` here?
A: > 8 µM (inactive)

Q: How did the IC50 turn out when `O=C(O)C1C2CCC(C2)C1C(=O)NCCCn1ccnc1` (stereo unspecified) was run?
A: > 8 µM (inactive)

Q: Which IC50 does the source give for `Cn1cccc1Cc1nnc(SCC(=O)N2CCOCC2)n1-c1ccc(F)cc1` here?
A: > 8 µM (inactive)

Q: Which IC50 does the source give for `C=CS(=O)(=O)c1ccc(Oc2ccc(S(=O)(=O)C=C)cc2)cc1` here?
A: 0.55 µM

Q: With `O=C(OCc1ccc2c(c1)OCO2)c1ccc(S(=O)(=O)N2CCCCC2)cc1` as the compound, how does the IC50 read?
A: > 8 µM (inactive)

Q: How did the IC50 turn out when `Cc1nnc(SCCn2c(N3CC(C)CC(C)C3)nc3c2c(=O)n(C)c(=O)n3C)s1` (stereo unspecified) was run?
A: > 8 µM (inactive)

Q: For `Cc1cc(NC(=O)COC(=O)c2cccc(S(=O)(=O)N3CCOCC3)c2)no1`, which IC50 is on record?
A: > 8 µM (inactive)

Q: For `CC1Oc2ccccc2N(CC(=O)N(Cc2ccccc2)Cc2ccccn2)C1=O` (stereo unspecified), which IC50 is on record?
A: > 8 µM (inactive)

Q: `CCOC(=O)C1CCCN(C(=O)c2sc3nc(-c4ccccc4)cn3c2C)C1` (stereo unspecified) was tested. Which IC50 did it give?
A: > 8 µM (inactive)

Q: For `COc1ccc(CCn2c(O)c(C=NCc3cccnc3)c(=O)[nH]c2=O)cc1OC`, which IC50 is on record?
A: > 8 µM (inactive)

Q: `COc1ccc(C(=O)CSc2nnc(C3CCCCC3)n2N)c(OC)c1` was tested. Which IC50 did it give?
A: > 8 µM (inactive)

Q: How did the IC50 turn out when `O=C(Cc1cccs1)NCc1ccc(F)cc1` was run?
A: > 8 µM (inactive)

Q: `Cc1cc2oc(=O)cc(CN3CCCCC3)c2cc1C(C)C` was tested. Which IC50 did it give?
A: > 8 µM (inactive)
